The text below walks through data of patent US12479840B2, “HMG-CoA reductase degradation inducing compound” (Uppthera, priority 2020, dated 2025).

For orientation: DC50 means the concentration at which degradation of the target reaches its halfway point.

This assay deals with T1, HMG-CoA reductase (Homo sapiens, UniProt P04035).
T1 construct: endogenous in cells; host or cells: HepG2 (Korea Cell Line Bank)
T1 sequence (P04035 1-888): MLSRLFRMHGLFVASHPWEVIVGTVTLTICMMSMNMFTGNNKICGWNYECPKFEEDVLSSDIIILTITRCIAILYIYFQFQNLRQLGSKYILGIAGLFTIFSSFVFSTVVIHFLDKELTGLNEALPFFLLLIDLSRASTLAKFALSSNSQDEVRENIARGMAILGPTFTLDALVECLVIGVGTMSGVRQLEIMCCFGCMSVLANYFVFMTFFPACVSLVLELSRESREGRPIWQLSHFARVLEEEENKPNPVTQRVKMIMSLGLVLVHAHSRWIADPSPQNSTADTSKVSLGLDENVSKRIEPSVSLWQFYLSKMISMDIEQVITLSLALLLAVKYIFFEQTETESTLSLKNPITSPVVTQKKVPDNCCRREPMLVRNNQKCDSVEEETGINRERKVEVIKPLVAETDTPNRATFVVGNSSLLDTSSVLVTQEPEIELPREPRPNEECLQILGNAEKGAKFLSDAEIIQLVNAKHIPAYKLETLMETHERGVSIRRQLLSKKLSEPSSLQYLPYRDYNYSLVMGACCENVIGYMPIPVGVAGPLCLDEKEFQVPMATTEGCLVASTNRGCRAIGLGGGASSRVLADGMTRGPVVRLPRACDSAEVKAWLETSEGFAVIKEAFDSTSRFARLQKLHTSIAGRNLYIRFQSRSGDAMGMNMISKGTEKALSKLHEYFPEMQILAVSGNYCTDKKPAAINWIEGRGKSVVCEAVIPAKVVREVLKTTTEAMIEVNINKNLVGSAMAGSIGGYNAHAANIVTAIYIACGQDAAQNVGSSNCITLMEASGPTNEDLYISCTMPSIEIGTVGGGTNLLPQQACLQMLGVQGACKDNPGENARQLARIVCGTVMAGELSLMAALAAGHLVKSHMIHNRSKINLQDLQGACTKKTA
The assay is described as follows: HMG-CoA reductase (HMGCR) degradation in HepG2 cells by western blotting. The format is cell-based. The settings on record: treated for 18 hours, ratio of HMG-CoA reductase to GAPDH, read-out: DC50. The method, boiled down: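 HepG2 cells (passage P105–P110) treated 18 hours with compounds in 10-point three-fold dilutions from 3 μM. RIPA lysates (15 μg protein, BCA-quantified) run on SDS-PAGE and immunoblotted for HMGCR (1:500) with GAPDH (1:20000) as loading control, primary antibodies 16 hours at 4° C.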
`C[C@H]1C=C2C=C[C@H](C)[C@H](CC[C@@H]3C[C@@H](O)CC(=O)O3)[C@H]2[C@@H](OC(=O)C(C)(C)CCC(=O)NCCOCCOCCNc2cccc3nnn(C4CCC(=O)NC4=O)c(=O)c23)C1` (stereo partly drawn) [Compound 152, (1S,3R,7S,8S,8aR)-8-(2-((2R,4R)-4-hydroxy-6-oxotetrahydro-2H-pyran-2-yl)ethyl)-3,7-dimethyl-1,2,3,7,8,8a-hexahydronaphthalen-1-yl 5-((2-(2-(2-((3-(2,6-dioxopiperidin-3-yl)-4-oxo-3,4-dihydrobenzo[d][1,2,3]triazin-5-yl)amino)ethoxy)ethoxy)ethyl)amino)-2,2-dimethyl-5-oxopentanoate]: the half-maximal degradation concentration (DC50) was below 50 nM.

As to `C[C@H]1C=C2C=C[C@H](C)[C@H](CC[C@@H]3C[C@@H](O)CC(=O)O3)[C@H]2[C@@H](OC(=O)NCCCCCNC(=O)COc2cccc3c2C(=O)N(C2CCC(=O)NC2=O)C3=O)C1` (stereo partly drawn) [Compound 75, (1S,3R,7S,8S,8aR)-8-(2-((2R,4R)-4-hydroxy-6-oxotetrahydro-2H-pyran-2-yl)ethyl)-3,7-dimethyl-1,2,3,7,8,8a-hexahydronaphthalen-1-yl (5-(2-((2-(2,6-dioxopiperidin-3-yl)-1,3-dioxoisoindolin-4-yl)oxy)acetamido)pentyl)carbamate], the DC50 is below 50 nM.

Regarding `Cc1ncsc1-c1ccc(CNC(=O)[C@@H]2C[C@@H](O)CN2C(=O)[C@@H](NC(=O)COCCOCCOCCNC(=O)O[C@H]2C[C@@H](C)C=C3C=C[C@H](C)[C@H](CC[C@@H]4C[C@@H](O[Si](C)(C)C(C)(C)C)CC(=O)O4)[C@H]32)C(C)(C)C)cc1` [Compound 20, (1S,3R,7S,8S,8aR)-8-(2-((2R,4R)-4-((tert-butyldimethylsilyl)oxy)-6-oxotetrahydro-2H-pyran-2-yl)ethyl)-3,7-dimethyl-1,2,3,7,8,8a-hexahydronaphthalen-1-yl ((S)-13-((2S,4R)-4-hydroxy-2-((4-(4-methylthiazol-5-yl)benzyl)carbamoyl)pyrrolidine-1-carbonyl)-14,14-dimethyl-11-oxo-3,6,9-trioxa-12-azapentadecyl)carbamate], the DC50 was below 50 nM.

For `C[C@H]1C=C2C=C[C@H](C)[C@H](CC[C@@H]3C[C@@H](O[Si](C)(C)C(C)(C)C)CC(=O)O3)[C@H]2[C@@H](OC(=O)NCCCCCCCCCCNc2cccc3c2C(=O)N(C2CCC(=O)NC2=O)C3=O)C1` (stereo partly drawn) [Compound 56, (1S,3R,7S,8S,8aR)-8-(2-((2R,4R)-4-((tert-butyldimethylsilyl)oxy)-6-oxotetrahydro-2H-pyran-2-yl)ethyl)-3,7-dimethyl-1,2,3,7,8,8a-hexahydronaphthalen-1-yl (10-((2-(2,6-dioxopiperidin-3-yl)-1,3-dioxoisoindolin-4-yl)amino)decyl)carbamate], the DC50 was below 50 nM.

Take `C[C@H]1C=C2C=C[C@H](C)[C@H](CC[C@@H]3C[C@@H](O)CC(=O)O3)[C@H]2[C@@H](OC(=O)NCCOCCOCCOCCOCCOCCOCCNc2cccc3c2C(=O)N(C2CCC(=O)NC2=O)C3=O)C1` (stereo partly drawn) [Compound 44, (1S,3R,7S,8S,8aR)-8-(2-((2R,4R)-4-hydroxy-6-oxotetrahydro-2H-pyran-2-yl)ethyl)-3,7-dimethyl-1,2,3,7,8,8a-hexahydronaphthalen-1-yl (20-((2-(2,6-dioxopiperidin-3-yl)-1,3-dioxoisoindolin-4-yl)amino)-3,6,9,12,15,18-hexaoxaicosyl)carbamate]: the DC50 is below 50 nM.

As for `Cc1ncsc1-c1ccc(CNC(=O)[C@@H]2C[C@@H](O)CN2C(=O)[C@@H](NC(=O)COCCOCCOCCNC(=O)O[C@H]2C[C@@H](C)C=C3C=C[C@H](C)[C@H](CC[C@@H]4C[C@@H](O)CC(=O)O4)[C@H]32)C(C)(C)C)cc1` [Compound 16, (1S,3R,7S,8S,8aR)-8-(2-((2R,4R)-4-hydroxy-6-oxotetrahydro-2H-pyran-2-yl)ethyl)-3,7-dimethyl-1,2,3,7,8,8a-hexahydronaphthalen-1-yl ((S)-13-((2S,4R)-4-hydroxy-2-((4-(4-methylthiazol-5-yl)benzyl)carbamoyl)pyrrolidine-1-carbonyl)-14,14-dimethyl-11-oxo-3,6,9-trioxa-12-azapentadecyl)carbamate], the DC50 is below 50 nM.

For `C[C@H]1C=C2C=C[C@H](C)[C@H](CC[C@@H]3C[C@@H](O)CC(=O)O3)[C@H]2[C@@H](OC(=O)NCCOCCOCCOCCOCCNc2cccc3c2C(=O)N(C2CCC(=O)NC2=O)C3=O)C1` (stereo partly drawn) [Compound 42, (1S,3R,7S,8S,8aR)-8-(2-((2R,4R)-4-hydroxy-6-oxotetrahydro-2H-pyran-2-yl)ethyl)-3,7-dimethyl-1,2,3,7,8,8a-hexahydronaphthalen-1-yl (14-((2-(2,6-dioxopiperidin-3-yl)-1,3-dioxoisoindolin-4-yl)amino)-3,6,9,12-tetraoxatetradecyl)carbamate], the DC50 is below 50 nM.

As for `C[C@H]1C=C2C=C[C@H](C)[C@H](CC[C@@H]3C[C@@H](O[Si](C)(C)C(C)(C)C)CC(=O)O3)[C@H]2[C@@H](OC(=O)NCCOCC(=O)NCC(=O)Nc2cccc3c2C(=O)N(C2CCC(=O)NC2=O)C3=O)C1` (stereo partly drawn) [Compound 144, (1S,3R,7S,8S,8aR)-8-(2-((2R,4R)-4-((tert-butyldimethylsilyl)oxy)-6-oxotetrahydro-2H-pyran-2-yl)ethyl)-3,7-dimethyl-1,2,3,7,8,8a-hexahydronaphthalen-1-yl (2-(2-((2-((2-(2,6-dioxopiperidin-3-yl)-1,3-dioxoisoindolin-4-yl)amino)-2-oxoethyl)amino)-2-oxoethoxy)ethyl)carbamate], the DC50 is 50 to 500 nM.

For `C[C@H]1C=C2C=C[C@H](C)[C@H](CC[C@@H]3C[C@@H](O)CC(=O)O3)[C@H]2[C@@H](OC(=O)NCCCOCCCCNc2cccc3c2C(=O)N(C2CCC(=O)NC2=O)C3=O)C1` (stereo partly drawn) [Compound 121, (1S,3R,7S,8S,8aR)-8-(2-((2R,4R)-4-hydroxy-6-oxotetrahydro-2H-pyran-2-yl)ethyl)-3,7-dimethyl-1,2,3,7,8,8a-hexahydronaphthalen-1-yl (3-(4-((2-(2,6-dioxopiperidin-3-yl)-1,3-dioxoisoindolin-4-yl)amino)butoxy)propyl)carbamate], the DC50 is below 50 nM.

Regarding `Cc1ncsc1-c1ccc(CNC(=O)[C@@H]2C[C@@H](O)CN2C(=O)[C@@H](NC(=O)COCCOCCNC(=O)CCC(C)(C)C(=O)O[C@H]2C[C@@H](C)C=C3C=C[C@H](C)[C@H](CC[C@@H]4C[C@@H](O)CC(=O)O4)[C@H]32)C(C)(C)C)cc1` [Compound 9, (S)-(1S,3R,7S,8S,8aR)-8-(2-((2R,4R)-4-hydroxy-6-oxotetrahydro-2H-pyran-2-yl)ethyl)-3,7-dimethyl-1,2,3,7,8,8a-hexahydronaphthalen-1-yl 3-((2S,4R)-4-hydroxy-2-((4-(4-methylthiazol-5-yl)benzyl)carbamoyl)pyrrolidine-1-carbonyl)-2,2,17,17-tetramethyl-5,14-dioxo-7,10-dioxa-4,13-diazaoctadecan-18-oate], the DC50 was below 50 nM.

Regarding `C[C@H]1C=C2C=C[C@H](C)[C@H](CC[C@@H]3C[C@@H](O)CC(=O)O3)[C@H]2[C@@H](OC(=O)NCCCn2cnc(CNc3cccc4c3C(=O)N(C3CCC(=O)NC3=O)C4=O)c2)C1` (stereo partly drawn) [Compound 103, (1S,3R,7S,8S,8aR)-8-(2-((2R,4R)-4-hydroxy-6-oxotetrahydro-2H-pyran-2-yl)ethyl)-3,7-dimethyl-1,2,3,7,8,8a-hexahydronaphthalen-1-yl (3-(4-(((2-(2,6-dioxopiperidin-3-yl)-1,3-dioxoisoindolin-4-yl)amino)methyl)-1H-imidazol-1-yl)propyl)carbamate], the DC50 was below 50 nM.

Consider `C[C@H]1C=C2C=C[C@H](C)[C@H](CC[C@@H]3C[C@@H](O)CC(=O)O3)[C@H]2[C@@H](OC(=O)NCc2ccc(OCCNc3cccc4c3C(=O)N(C3CCC(=O)NC3=O)C4=O)cc2)C1` (stereo partly drawn) [Compound 105, (1S,3R,7S,8S,8aR)-8-(2-((2R,4R)-4-hydroxy-6-oxotetrahydro-2H-pyran-2-yl)ethyl)-3,7-dimethyl-1,2,3,7,8,8a-hexahydronaphthalen-1-yl (4-(2-((2-(2,6-dioxopiperidin-3-yl)-1,3-dioxoisoindolin-4-yl)amino)ethoxy)benzyl)carbamate], for which the DC50 is below 50 nM.
